From PMC6409486 (Stem Cell Reports, 2019)
Entries after “also recorded” stand apart in the source; their conditions may differ. Where two headings read alike, the source gives them in different places.

What was measured:
[1] = system: human iPSC-derived MNs; experiment: TUBB3 immunostaining and neurite segmentation of human MNs with DetaNO; format: cell-based
[2] = system: mouse ESC-derived MNs; experiment: MN survival with DetaNO; format: cell-based
[3] = system: mouse ESC-derived MNs; experiment: Compounds on unstressed MNs; format: cell-based; conditions: for toxicity to unstressed MNs: absence of any stress; for survival of unstressed MNs: unstressed conditions
[4] = target: T1, CDK9 (Homo sapiens, UniProt P50750); experiment: CDK9 LANCE Assay; conditions: biochemical profiling
[5] = target: T2, CDK7 (Homo sapiens, UniProt P50613); experiment: CDK7 LANCE Assay; conditions: biochemical profiling
[6] = system: iPSC-derived MNs; experiment: Label-free quantitative phosphoproteomics of DetaNO-treated MNs; format: cell-based, human
[7] = target: T1, CDK9; conditions: 10 μM; ref Fabian et al., 2005; http://lincs.hms.harvard.edu/db/datasets/20044/; cited from earlier work
[8] = target: T2, CDK7; conditions: 10 μM; ref Fabian et al., 2005; http://lincs.hms.harvard.edu/db/datasets/20044/; cited from earlier work
[9] = system: mouse ESC-derived MNs; experiment: MN survival with activated BV2 cells; format: cell-based
[10] = system: human iPSC-derived MNs; experiment: CellTiter-Glo assay, human MNs stressed with 400 μM DetaNO; format: cell-based
[11] = system: FACS-purified mouse ESC-derived MNs; experiment: FACS-purified MNs cultured with DetaNO in the absence of astrocytes; format: cell-based
[12] = target: GSK3β (Homo sapiens, UniProt P49841); conditions: 1 μM; ref Chen et al., 2016; cited from earlier work
[13] = system: mouse ESC-derived MNs; experiment: CHIR rescue of CP681301-mediated cytotoxicity; format: cell-based; conditions: 5 μM CP681301, increasing concentrations of CHIR (1.25-2.5 µM)

T1 sequence (P50750 whole entry, species assumed): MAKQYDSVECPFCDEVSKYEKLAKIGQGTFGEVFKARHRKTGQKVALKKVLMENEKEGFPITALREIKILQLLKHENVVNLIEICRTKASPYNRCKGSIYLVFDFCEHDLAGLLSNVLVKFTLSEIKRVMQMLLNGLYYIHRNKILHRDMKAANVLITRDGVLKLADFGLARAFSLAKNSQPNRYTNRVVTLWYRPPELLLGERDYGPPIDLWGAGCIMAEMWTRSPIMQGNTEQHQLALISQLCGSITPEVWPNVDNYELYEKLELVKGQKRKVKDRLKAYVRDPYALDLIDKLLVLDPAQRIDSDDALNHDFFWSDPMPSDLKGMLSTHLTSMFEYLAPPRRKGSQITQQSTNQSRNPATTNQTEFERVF
T1 sequence (O60563 whole entry partner, species assumed): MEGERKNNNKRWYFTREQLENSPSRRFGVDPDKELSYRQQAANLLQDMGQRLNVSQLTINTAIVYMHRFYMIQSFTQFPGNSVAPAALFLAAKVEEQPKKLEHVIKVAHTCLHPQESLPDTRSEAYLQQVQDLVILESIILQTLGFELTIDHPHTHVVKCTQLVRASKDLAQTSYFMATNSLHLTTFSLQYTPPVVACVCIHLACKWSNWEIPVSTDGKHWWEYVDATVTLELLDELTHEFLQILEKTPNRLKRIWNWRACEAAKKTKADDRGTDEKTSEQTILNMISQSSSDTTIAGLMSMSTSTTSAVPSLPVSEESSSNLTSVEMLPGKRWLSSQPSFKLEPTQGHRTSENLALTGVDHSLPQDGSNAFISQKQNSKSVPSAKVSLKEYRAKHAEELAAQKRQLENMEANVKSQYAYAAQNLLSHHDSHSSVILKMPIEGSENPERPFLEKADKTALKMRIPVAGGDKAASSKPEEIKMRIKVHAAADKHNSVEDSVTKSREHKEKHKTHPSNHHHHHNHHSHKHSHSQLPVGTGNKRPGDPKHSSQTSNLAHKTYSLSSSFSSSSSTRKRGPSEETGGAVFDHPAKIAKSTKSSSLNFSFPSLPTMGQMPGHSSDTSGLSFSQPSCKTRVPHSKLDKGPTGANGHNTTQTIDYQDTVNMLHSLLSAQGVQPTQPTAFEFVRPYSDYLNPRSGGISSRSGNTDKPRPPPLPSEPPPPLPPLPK
T2 sequence (P50613 whole entry, species assumed): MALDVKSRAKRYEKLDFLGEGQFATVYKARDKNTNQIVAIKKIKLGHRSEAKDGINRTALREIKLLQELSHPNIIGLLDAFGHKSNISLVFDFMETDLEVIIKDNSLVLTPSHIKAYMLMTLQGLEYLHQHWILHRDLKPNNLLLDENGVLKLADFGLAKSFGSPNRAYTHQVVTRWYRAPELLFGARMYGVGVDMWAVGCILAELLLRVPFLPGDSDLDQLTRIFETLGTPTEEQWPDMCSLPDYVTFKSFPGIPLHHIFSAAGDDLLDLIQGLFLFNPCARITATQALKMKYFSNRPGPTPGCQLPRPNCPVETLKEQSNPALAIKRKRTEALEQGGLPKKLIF
T2 sequence (P51946 whole entry partner, species assumed): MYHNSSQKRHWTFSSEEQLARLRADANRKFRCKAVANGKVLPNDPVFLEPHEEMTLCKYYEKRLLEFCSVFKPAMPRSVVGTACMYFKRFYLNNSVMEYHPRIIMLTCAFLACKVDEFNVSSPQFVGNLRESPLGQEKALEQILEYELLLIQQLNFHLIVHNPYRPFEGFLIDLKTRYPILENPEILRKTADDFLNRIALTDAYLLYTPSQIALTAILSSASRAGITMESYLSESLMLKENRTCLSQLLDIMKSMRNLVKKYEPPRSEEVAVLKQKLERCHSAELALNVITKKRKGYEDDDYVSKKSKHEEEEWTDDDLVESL
T2 sequence (P51948 whole entry partner, species assumed): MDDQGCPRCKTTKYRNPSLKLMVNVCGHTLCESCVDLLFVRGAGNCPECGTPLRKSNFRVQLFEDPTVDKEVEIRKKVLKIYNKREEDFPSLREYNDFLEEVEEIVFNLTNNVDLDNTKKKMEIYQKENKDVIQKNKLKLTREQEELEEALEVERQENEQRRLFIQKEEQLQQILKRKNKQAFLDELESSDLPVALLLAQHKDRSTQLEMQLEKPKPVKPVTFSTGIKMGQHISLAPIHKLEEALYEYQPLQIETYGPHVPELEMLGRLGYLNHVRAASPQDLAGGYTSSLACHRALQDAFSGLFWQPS
Chain of GSK3β (P49841 whole entry, species assumed): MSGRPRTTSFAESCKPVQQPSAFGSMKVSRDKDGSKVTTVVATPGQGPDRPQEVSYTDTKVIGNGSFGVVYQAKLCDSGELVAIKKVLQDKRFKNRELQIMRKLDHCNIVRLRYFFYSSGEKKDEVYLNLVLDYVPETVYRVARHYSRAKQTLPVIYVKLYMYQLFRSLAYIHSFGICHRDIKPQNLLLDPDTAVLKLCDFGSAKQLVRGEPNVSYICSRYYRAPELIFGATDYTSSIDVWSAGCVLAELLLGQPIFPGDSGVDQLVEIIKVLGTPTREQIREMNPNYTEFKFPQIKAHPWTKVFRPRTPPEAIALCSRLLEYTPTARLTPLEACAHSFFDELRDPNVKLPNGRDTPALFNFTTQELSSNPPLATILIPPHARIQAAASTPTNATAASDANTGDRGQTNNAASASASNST

SMILES | protection of MNs from DetaNO-induced degeneration (words) [2] | toxicity to unstressed MNs [3] | protection of MNs from activated BV2-induced degeneration (words) [9] | further results
O=C1Cc2c([nH]c3ccc(Br)cc23)-c2ccccc2N1 [kenpaullone] | robustly protected | no visible toxicity |  | protection of human MN neurites from DetaNO, TUBB3 neurite segments ([1]; 400 μM DetaNO, 0.625 μM kenpaullone, two iPSC lines): robustly protected; survival of unstressed MNs [3]: small increase in MN survival; inhibition of CDK9 [4]: does not inhibit; inhibition of CDK7 [5]: does not inhibit; phosphopeptide levels of MAPT, MAP1B and MAP2 ([6]; DetaNO-treated iPSC-derived MNs): consistently decreased; phosphorylation levels of CLASP1, CLASP2 and DPYSL2 ([6]; compared with MNs cultured with DetaNO): reduced
CC(=O)c1c(C)c2cnc(Nc3ccc(N4CCNCC4)cn3)nc2n(C2CCCC2)c1=O [PD332991] | not neuroprotective |  |  | ATP binding to CDK9 [7]: significantly reduces ATP binding; ATP binding to CDK7 [8]: significantly reduces ATP binding
CC1CCN=C(N)S1 (centres unmarked) [AMT, 2-amino-5,6-dihydro-6-methyl-4H-1,3-thiazine] |  |  | rescued | 
CN1CC[C@H](c2c(O)cc(O)c3c(=O)cc(-c4ccccc4Cl)oc23)[C@H](O)C1 [flavopiridol] | robustly protected; also recorded: rescued | induced toxicity | robustly protected; also recorded: rescued | 
NCCN(CCN)/[N+]([O-])=N/O [DetaNO, diethylenetriamine/NO adduct] |  |  |  | number of TUBB3-positive punctae ([1]; 400 μM DetaNO for 24 h): large increase; area of TUBB3-positive neurite segments ([1]; iPSC-derived MNs, DetaNO): decreased
NS(=O)(=O)c1ccc(Nc2nc(OCC3CCCCC3)c3[nH]cnc3n2)cc1 [NU6102] | not protective |  |  | 
CCc1cnn2c(NCc3ccc[n+]([O-])c3)cc(N3CCCC[C@H]3CCO)nc12 [dinaciclib] | robustly protected | induced toxicity | robustly protected | protection of MNs from DetaNO-induced degeneration (words) ([2]; listed as Dinaciclib): rescued; rescue of human MNs from DetaNO stress, CellTiter-Glo ATP levels [10]: potently rescued; protection of FACS-purified MNs from DetaNO-induced degeneration [11]: protected; reduction of the activity of GSK3β [12]: about 70%; protection of MNs from activated BV2-induced degeneration (words) ([9]; listed as Dinaciclib): rescued
COc1ccc(F)c(F)c1C(=O)c1cnc(NC2CCN(S(C)(=O)=O)CC2)nc1N [R-547] | robustly protected; also recorded: rescued |  | robustly protected; also recorded: rescued | 
Cc1c[nH]c(-c2cnc(NCCNc3ccc(C#N)cn3)nc2-c2ccc(Cl)cc2Cl)n1 [CHIR] | failed to protect | did not show any cytotoxic effects |  | survival of unstressed MNs [3]: small, but significant increase; rescue of MNs from CP681301-mediated cytotoxicity [13]: rescued
CC(C)(C)c1cnc(CSc2cnc(NC(=O)C3CCNCC3)s2)o1 [BMS-387032] | robustly protected; also recorded: rescued | induced toxicity | robustly protected; also recorded: rescued | 
